What was measured:
[1] = tested on: Tyrosine-protein kinase ABL1 (Homo sapiens), P00519 [H396P]; details: Compound concentration 1000.0 nM
[2] = molecular target: RAC-gamma serine/threonine-protein kinase (Homo sapiens) (UniProt Q9Y243); details: Compound concentration 1000.0 nM
[3] = tested on: ALK tyrosine kinase receptor (Homo sapiens), Q9UM73 [L1196M]; details: Compound concentration 1000.0 nM
[4] = molecular target: Calcium/calmodulin-dependent protein kinase type 1G (Homo sapiens) (UniProt Q96NX5); details: Compound concentration 1000.0 nM
[5] = molecular target: Cyclin-dependent kinase 13 (Homo sapiens) (UniProt Q14004); details: Compound concentration 1000.0 nM
Chain of Cyclin-dependent kinase 13 (Homo sapiens) (Q14004 whole entry, looked up): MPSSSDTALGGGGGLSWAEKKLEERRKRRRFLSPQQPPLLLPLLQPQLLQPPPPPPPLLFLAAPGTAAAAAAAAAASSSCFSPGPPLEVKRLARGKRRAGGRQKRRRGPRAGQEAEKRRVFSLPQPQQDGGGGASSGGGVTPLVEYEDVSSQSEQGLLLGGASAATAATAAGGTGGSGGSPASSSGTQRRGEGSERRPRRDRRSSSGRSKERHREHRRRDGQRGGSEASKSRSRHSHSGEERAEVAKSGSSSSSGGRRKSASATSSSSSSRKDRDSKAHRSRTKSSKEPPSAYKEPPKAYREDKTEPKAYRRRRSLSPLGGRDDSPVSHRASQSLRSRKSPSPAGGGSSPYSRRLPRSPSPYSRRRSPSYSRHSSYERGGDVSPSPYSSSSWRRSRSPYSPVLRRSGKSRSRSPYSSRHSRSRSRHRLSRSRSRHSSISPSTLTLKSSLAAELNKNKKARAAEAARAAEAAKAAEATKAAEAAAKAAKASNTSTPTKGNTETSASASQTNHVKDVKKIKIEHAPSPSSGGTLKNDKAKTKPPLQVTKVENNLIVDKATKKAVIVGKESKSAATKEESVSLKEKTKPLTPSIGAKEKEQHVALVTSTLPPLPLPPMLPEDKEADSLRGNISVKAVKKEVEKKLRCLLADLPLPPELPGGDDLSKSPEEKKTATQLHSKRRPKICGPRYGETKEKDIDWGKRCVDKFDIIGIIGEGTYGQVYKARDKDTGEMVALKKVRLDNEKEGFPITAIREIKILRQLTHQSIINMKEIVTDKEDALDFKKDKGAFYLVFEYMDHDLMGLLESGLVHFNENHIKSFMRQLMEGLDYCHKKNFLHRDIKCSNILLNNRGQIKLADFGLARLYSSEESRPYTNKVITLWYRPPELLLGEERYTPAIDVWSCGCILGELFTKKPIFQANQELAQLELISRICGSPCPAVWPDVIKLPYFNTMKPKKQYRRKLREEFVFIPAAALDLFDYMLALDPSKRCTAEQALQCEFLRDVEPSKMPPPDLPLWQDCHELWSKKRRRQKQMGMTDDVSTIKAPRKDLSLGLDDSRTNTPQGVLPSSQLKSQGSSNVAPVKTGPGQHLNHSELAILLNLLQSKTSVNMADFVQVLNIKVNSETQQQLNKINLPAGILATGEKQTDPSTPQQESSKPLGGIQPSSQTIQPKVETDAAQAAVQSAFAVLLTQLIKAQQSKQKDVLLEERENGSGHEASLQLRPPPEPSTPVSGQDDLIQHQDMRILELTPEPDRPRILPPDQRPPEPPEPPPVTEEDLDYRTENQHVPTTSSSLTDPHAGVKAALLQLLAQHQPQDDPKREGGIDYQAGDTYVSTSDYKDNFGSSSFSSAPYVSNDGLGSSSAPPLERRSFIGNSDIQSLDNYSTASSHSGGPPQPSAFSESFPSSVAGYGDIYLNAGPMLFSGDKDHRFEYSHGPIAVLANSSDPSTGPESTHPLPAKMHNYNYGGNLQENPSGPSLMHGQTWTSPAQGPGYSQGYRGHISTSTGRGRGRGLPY

[6] = molecular target: Dual specificity protein kinase CLK1 (Homo sapiens) (UniProt P49759); details: Compound concentration 1000.0 nM
[7] = molecular target: Dual specificity protein kinase CLK4 (Homo sapiens) (UniProt Q9HAZ1); details: Compound concentration 1000.0 nM
[8] = molecular target: Death-associated protein kinase 1 (Homo sapiens) (UniProt P53355); details: Compound concentration 1000.0 nM
[9] = molecular target: Mitogen-activated protein kinase kinase kinase 12 (Homo sapiens) (UniProt Q12852); details: Compound concentration 1000.0 nM
[10] = molecular target: Serine/threonine-protein kinase MRCK gamma (Homo sapiens) (UniProt Q6DT37); details: Compound concentration 1000.0 nM
[11] = molecular target: Dual specificity tyrosine-phosphorylation-regulated kinase 1A (Homo sapiens) (UniProt Q13627); details: Compound concentration 1000.0 nM
[12] = tested on: Epidermal growth factor receptor (Homo sapiens), P00533 [L858R]; details: Compound concentration 1000.0 nM
[13] = molecular target: Ephrin type-B receptor 2 (Homo sapiens) (UniProt P29323); details: Compound concentration 1000.0 nM
[14] = molecular target: Tyrosine-protein kinase Fer (Homo sapiens) (UniProt P16591); details: Compound concentration 1000.0 nM
[15] = tested on: Receptor-type tyrosine-protein kinase FLT3 (Homo sapiens), P36888 [D835H]; details: Compound concentration 1000.0 nM
[16] = molecular target: Serine/threonine-protein kinase haspin (Homo sapiens) (UniProt Q8TF76); details: Compound concentration 1000.0 nM
[17] = molecular target: Tyrosine-protein kinase HCK (Homo sapiens) (UniProt P08631); details: Compound concentration 1000.0 nM
[18] = molecular target: Homeodomain-interacting protein kinase 3 (Homo sapiens) (UniProt Q9H422); details: Compound concentration 1000.0 nM
[19] = molecular target: Mitogen-activated protein kinase kinase kinase kinase 1 (Homo sapiens) (UniProt Q92918); details: Compound concentration 1000.0 nM
[20] = molecular target: Serine/threonine-protein kinase LATS1 (Homo sapiens) (UniProt O95835); details: Compound concentration 1000.0 nM
[21] = molecular target: Serine/threonine-protein kinase LATS2 (Homo sapiens) (UniProt Q9NRM7); details: Compound concentration 1000.0 nM
[22] = molecular target: Serine/threonine-protein kinase MAK (Homo sapiens) (UniProt P20794); details: Compound concentration 1000.0 nM
[23] = molecular target: Misshapen-like kinase 1 (Homo sapiens) (UniProt Q8N4C8); details: Compound concentration 1000.0 nM
[24] = molecular target: Serine/threonine-protein kinase Nek3 (Homo sapiens) (UniProt P51956); details: Compound concentration 1000.0 nM
[25] = molecular target: Serine/threonine-protein kinase PAK 4 (Homo sapiens) (UniProt O96013); details: Compound concentration 1000.0 nM
[26] = molecular target: Serine/threonine-protein kinase PAK 6 (Homo sapiens) (UniProt Q9NQU5); details: Compound concentration 1000.0 nM
[27] = tested on: Phosphatidylinositol 4,5-bisphosphate 3-kinase catalytic subunit alpha isoform (Homo sapiens), P42336 [M1043I]; details: Compound concentration 1000.0 nM
Chain of Phosphatidylinositol 4,5-bisphosphate 3-kinase catalytic subunit alpha isoform (Homo sapiens), P42336 [M1043I] (P42336 whole entry M1043I, canonical isoform): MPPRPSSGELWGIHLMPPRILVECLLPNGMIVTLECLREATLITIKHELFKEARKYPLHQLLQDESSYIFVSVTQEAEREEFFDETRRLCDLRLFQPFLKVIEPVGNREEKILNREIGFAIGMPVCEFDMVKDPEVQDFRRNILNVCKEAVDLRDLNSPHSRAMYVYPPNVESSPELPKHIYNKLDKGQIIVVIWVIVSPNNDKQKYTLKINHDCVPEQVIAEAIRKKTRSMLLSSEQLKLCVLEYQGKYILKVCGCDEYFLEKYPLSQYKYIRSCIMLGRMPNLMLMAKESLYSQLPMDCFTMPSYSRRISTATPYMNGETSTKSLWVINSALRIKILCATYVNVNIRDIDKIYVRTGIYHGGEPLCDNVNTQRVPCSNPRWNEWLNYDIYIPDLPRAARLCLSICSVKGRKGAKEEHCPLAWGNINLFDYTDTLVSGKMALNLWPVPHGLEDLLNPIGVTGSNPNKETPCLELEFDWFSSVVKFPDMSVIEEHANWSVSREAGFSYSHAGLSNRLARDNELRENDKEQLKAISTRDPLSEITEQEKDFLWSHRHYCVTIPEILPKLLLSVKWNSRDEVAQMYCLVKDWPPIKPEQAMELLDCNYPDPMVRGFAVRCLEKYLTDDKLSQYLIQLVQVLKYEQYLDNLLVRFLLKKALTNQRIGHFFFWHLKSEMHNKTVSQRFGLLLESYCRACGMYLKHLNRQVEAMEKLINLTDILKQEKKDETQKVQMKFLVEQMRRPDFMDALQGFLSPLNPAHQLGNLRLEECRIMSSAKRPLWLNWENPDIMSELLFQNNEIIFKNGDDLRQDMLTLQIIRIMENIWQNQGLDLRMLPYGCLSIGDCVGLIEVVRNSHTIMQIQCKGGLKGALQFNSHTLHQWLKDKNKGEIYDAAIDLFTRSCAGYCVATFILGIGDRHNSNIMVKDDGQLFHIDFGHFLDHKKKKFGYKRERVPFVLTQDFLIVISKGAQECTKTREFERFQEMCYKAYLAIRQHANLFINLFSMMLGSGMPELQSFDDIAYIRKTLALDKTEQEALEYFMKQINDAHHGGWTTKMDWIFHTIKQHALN

[28] = molecular target: Protein kinase C delta type (Homo sapiens) (UniProt Q05655); details: Compound concentration 1000.0 nM
[29] = molecular target: cAMP-dependent protein kinase catalytic subunit PRKX (Homo sapiens) (UniProt P51817); details: Compound concentration 1000.0 nM
[30] = molecular target: Proto-oncogene tyrosine-protein kinase receptor Ret (Homo sapiens) (UniProt P07949); details: Compound concentration 1000.0 nM
[31] = molecular target: Ribosomal protein S6 kinase alpha-2 (Homo sapiens) (UniProt Q15349); details: Compound concentration 1000.0 nM
[32] = molecular target: Serine/threonine-protein kinase Sgk1 (Homo sapiens) (UniProt O00141); details: Compound concentration 1000.0 nM
[33] = molecular target: Serine/threonine-protein kinase 36 (Homo sapiens) (UniProt Q9NRP7); details: Compound concentration 1000.0 nM
[34] = molecular target: Serine/threonine-protein kinase TAO3 (Homo sapiens) (UniProt Q9H2K8); details: Compound concentration 1000.0 nM
[35] = molecular target: TGF-beta receptor type-1 (Homo sapiens) (UniProt P36897); details: Compound concentration 1000.0 nM
Chain of TGF-beta receptor type-1 (Homo sapiens) (P36897 whole entry): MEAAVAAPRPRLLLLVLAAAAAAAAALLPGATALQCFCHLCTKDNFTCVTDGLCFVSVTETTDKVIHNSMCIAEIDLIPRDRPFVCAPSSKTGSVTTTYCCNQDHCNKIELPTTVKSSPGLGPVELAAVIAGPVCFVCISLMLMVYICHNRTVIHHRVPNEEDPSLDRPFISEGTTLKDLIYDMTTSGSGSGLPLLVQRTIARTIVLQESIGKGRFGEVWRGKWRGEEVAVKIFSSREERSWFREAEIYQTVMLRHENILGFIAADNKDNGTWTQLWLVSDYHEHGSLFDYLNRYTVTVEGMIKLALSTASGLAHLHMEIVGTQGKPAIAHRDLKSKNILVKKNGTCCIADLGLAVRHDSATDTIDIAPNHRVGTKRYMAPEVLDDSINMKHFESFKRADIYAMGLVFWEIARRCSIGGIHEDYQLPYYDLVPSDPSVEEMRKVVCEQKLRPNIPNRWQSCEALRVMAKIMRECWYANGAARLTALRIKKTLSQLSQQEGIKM

[36] = molecular target: Serine/threonine-protein kinase TNNI3K (Homo sapiens) (UniProt Q59H18); details: Compound concentration 1000.0 nM
[37] = molecular target: High affinity nerve growth factor receptor (Homo sapiens) (UniProt P04629); details: Compound concentration 1000.0 nM
[38] = molecular target: Transient receptor potential cation channel subfamily M member 6 (Homo sapiens) (UniProt Q9BX84); details: Compound concentration 1000.0 nM
[39] = molecular target: Serine/threonine-protein kinase ULK2 (Homo sapiens) (UniProt Q8IYT8); details: Compound concentration 1000.0 nM
Chain of Serine/threonine-protein kinase ULK2 (Homo sapiens) (Q8IYT8 whole entry): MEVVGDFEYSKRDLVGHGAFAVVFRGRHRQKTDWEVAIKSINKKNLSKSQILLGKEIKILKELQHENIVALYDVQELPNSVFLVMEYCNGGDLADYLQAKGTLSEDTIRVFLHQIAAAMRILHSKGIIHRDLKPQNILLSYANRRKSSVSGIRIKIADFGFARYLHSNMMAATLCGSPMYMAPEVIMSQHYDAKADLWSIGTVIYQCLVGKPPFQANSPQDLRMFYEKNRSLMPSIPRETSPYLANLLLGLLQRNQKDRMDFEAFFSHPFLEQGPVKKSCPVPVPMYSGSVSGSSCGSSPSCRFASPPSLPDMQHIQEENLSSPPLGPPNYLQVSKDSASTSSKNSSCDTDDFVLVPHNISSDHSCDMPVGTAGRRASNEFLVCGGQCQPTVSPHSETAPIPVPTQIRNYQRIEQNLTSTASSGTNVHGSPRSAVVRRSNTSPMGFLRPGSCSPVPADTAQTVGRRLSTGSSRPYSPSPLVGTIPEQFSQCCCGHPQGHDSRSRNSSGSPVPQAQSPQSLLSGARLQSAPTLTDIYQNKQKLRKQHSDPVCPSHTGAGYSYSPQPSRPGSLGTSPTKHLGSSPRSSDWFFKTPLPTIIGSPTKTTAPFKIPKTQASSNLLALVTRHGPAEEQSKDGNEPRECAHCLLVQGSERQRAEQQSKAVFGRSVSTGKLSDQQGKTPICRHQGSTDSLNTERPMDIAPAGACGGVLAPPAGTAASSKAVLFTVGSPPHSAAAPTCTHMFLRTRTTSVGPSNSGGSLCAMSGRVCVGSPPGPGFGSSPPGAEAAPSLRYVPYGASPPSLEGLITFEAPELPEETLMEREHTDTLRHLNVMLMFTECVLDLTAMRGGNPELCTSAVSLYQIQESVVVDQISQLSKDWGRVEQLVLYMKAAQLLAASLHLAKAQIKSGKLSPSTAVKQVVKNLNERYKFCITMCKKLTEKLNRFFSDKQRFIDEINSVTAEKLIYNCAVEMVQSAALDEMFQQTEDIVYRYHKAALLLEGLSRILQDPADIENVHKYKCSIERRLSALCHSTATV

[40] = molecular target: 5-hydroxytryptamine receptor 1B (Homo sapiens) (UniProt P28222); details: Compound concentration 10.0 uM
Chain of 5-hydroxytryptamine receptor 1B (Homo sapiens) (P28222 whole entry): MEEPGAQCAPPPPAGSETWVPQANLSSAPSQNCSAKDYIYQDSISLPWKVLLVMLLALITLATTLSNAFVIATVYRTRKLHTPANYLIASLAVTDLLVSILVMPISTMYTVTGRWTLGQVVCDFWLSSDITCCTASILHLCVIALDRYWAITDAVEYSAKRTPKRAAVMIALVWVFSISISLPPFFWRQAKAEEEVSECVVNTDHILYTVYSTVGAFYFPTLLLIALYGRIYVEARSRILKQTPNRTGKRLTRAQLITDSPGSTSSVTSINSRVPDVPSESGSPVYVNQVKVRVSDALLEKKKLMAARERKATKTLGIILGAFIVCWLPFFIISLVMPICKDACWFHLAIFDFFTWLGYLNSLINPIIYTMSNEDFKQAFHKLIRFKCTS

[41] = molecular target: 5-hydroxytryptamine receptor 1E (Homo sapiens) (UniProt P28566); details: Compound concentration 10.0 uM
[42] = molecular target: 5-hydroxytryptamine receptor 2B (Homo sapiens, UniProt P41595); details: Compound concentration 10.0 uM
[43] = molecular target: Mu-type opioid receptor (Homo sapiens) (UniProt P35372); details: Compound concentration 10.0 uM
Chain of Mu-type opioid receptor (Homo sapiens) (P35372 whole entry): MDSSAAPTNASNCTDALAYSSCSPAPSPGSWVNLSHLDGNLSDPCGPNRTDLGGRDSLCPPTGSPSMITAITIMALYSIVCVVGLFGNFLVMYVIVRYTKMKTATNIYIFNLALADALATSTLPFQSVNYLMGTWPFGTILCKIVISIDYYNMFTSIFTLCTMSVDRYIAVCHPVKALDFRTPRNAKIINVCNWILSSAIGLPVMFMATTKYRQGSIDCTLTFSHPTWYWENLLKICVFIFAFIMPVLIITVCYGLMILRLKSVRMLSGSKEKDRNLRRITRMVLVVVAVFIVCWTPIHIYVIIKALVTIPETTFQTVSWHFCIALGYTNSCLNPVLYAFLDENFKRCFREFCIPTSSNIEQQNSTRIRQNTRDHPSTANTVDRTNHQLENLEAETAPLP

[44] = molecular target: GABA-A receptor; anion channel (Rattus norvegicus) (UniProt O09028+P15431+P18506+P18508+P19969+P20236+P23574+P23576+P28471+P28473+P30191+P62813+P63079+P63138+Q91ZM7+Q9ES14); details: Compound concentration 10.0 uM

`O=C(Nc1ccc(Oc2ccc(F)cc2)cc1)N1CCc2ncccc2[C@H]1c1ccc(F)cc1` [BAY-897] showed a residual activity [1] of 98%, a residual activity [2] of 95% and a residual activity [3] of 100%. For the same compound, the residual activity [4] was 100%, the residual activity [5] was 100% and the residual activity [6] was 86%. The residual activity [7] was 100%, the residual activity [8] was 87% and the residual activity [9] was 100%. It also gave a residual activity [10] of 93%, a residual activity [11] of 95% and a residual activity [12] of 96%. For the same compound, the residual activity [13] was 91%, the residual activity [14] was 91% and the residual activity [15] was 86%. It also gave a residual activity [16] of 85%, a residual activity [17] of 100% and a residual activity [18] of 92%. For the same compound, the residual activity [19] was 100%, the residual activity [20] was 86% and the residual activity [21] was 100%. For the same compound, the residual activity [22] was 100%, the residual activity [23] was 99% and the residual activity [24] was 64%. The residual activity [25] was 94%, the residual activity [26] was 100% and the residual activity [27] was 89%. It also gave a residual activity [28] of 100%, a residual activity [29] of 88% and a residual activity [30] of 94%. It also gave a residual activity [31] of 100%, a residual activity [32] of 95% and a residual activity [33] of 89%. The residual activity [34] was 92%, the residual activity [35] was 85% and the residual activity [36] was 100%. It also gave a residual activity [37] of 85%, a residual activity [38] of 100% and a residual activity [39] of 98%. For the same compound, the inhibition [40] was 18.8%, the inhibition [41] was 1.61% and the inhibition [42] was 52.4%. The inhibition [43] was 37.1% and the inhibition [44] was 22.4%.
`O=C(Nc1cnc(Oc2ccc(F)cc2)nc1)N1CCc2ncccc2[C@@H]1c1ccc(F)cc1` [BAY-899] showed a residual activity [1] of 97%, a residual activity [2] of 78% and a residual activity [3] of 100%. It also gave a residual activity [4] of 97%, a residual activity [5] of 100% and a residual activity [6] of 80%. The residual activity [7] was 100%, the residual activity [8] was 78% and the residual activity [9] was 100%. For the same compound, the residual activity [10] was 98%, the residual activity [11] was 100% and the residual activity [12] was 92%. The residual activity [13] was 87%, the residual activity [14] was 93% and the residual activity [15] was 100%. For the same compound, the residual activity [16] was 93%, the residual activity [17] was 96% and the residual activity [18] was 90%. For the same compound, the residual activity [19] was 100%, the residual activity [20] was 100% and the residual activity [21] was 99%. It also gave a residual activity [22] of 100%, a residual activity [23] of 100% and a residual activity [24] of 67%. For the same compound, the residual activity [25] was 82%, the residual activity [26] was 100% and the residual activity [27] was 100%. It also gave a residual activity [28] of 87%, a residual activity [29] of 93% and a residual activity [30] of 94%. The residual activity [31] was 97%, the residual activity [32] was 75% and the residual activity [33] was 91%. The residual activity [34] was 100%, the residual activity [35] was 90% and the residual activity [36] was 100%. For the same compound, the residual activity [37] was 100%, the residual activity [38] was 100% and the residual activity [39] was 93%. It also gave an inhibition [40] of 36.4%, an inhibition [41] of -8.08% and an inhibition [42] of 37.6%. For the same compound, the inhibition [43] was 28.1% and the inhibition [44] was 26%.
